Measured values from ChEMBL document CHEMBL4152360 (Bioorg Med Chem, 2018).
Activity calls are given as the source filed them. The rule behind the calls is not given here.

Experiments:
[1] = molecular target: T1, Casein kinase II subunit alpha (Homo sapiens, UniProt P68400); experiment: Displacement of ARC-1504/ARC-1513-5O from CK2alpha (unknown origin) (1 to 335 residues) after 15 to 60 mins by luminescence assay
[2] = molecular target: T2, Casein kinase II subunit alpha (Mus musculus) (UniProt Q60737); experiment: Binding affinity to RFP-tagged CK2alpha in mouse NIH/3T3 cell lysate at 10 nM by luminescence assay relative to native CK2
T2 sequence (whole entry): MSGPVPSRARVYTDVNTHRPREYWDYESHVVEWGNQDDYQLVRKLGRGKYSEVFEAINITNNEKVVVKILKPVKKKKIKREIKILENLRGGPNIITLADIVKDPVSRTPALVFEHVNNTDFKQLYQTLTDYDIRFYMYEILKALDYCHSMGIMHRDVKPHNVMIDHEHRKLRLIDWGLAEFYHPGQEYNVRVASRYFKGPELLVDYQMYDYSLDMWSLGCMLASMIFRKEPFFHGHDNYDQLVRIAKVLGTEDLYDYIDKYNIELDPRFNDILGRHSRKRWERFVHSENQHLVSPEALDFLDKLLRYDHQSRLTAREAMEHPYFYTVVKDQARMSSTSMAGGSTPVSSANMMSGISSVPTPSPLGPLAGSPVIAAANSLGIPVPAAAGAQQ

[3] = molecular target: T2, Casein kinase II subunit alpha (Mus musculus); experiment: Binding affinity to RFP-tagged CK2alpha in mouse NIH/3T3 cell lysate at 10 nM by luminescence assay
[4] = molecular target: T1, Casein kinase II subunit alpha; experiment: Displacement of ARC-1504/ARC-1513-5O from CK2alpha (unknown origin) (1 to 335 residues) assessed as photoluminescence lifetime using non-deoxygenated solution after 15 to 60 mins by luminescence assay
[5] = molecular target: T1, Casein kinase II subunit alpha; experiment: Displacement of ARC-1504/ARC-1513-5O from CK2alpha (unknown origin) (1 to 335 residues) assessed as maximal luminescence intensity of the complex after 15 to 60 mins by luminescence assay relative to ARC-1527
[6] = species: Mus musculus; experiment: Binding affinity to CK2 in mouse NIH3T3 cell lysate at 10 nM by luminescence assay
[7] = species: Mus musculus; experiment: Binding affinity to CK2 in mouse NIH3T3 cell lysate at 10 nM in presence of CK2 inhibitor CX-4945 by luminescence assay
[8] = molecular target: T1, Casein kinase II subunit alpha; experiment: Displacement of ARC-1504/ARC-1513-5O from CK2alpha (unknown origin) (1 to 335 residues) assessed as photoluminescence lifetime using deoxygenated solution after 15 to 60 mins by luminescence assay
[9] = molecular target: Casein kinase II subunit alpha' (Homo sapiens) (UniProt P19784); experiment: Displacement of ARC-1504/ARC-1513-5O from CK2alpha' (unknown origin) (1 to 335 residues) assessed as photoluminescence lifetime using non-deoxygenated solution after 15 to 60 mins by luminescence assay
[10] = molecular target: T2, Casein kinase II subunit alpha (Mus musculus); experiment: Binding affinity to RFP-tagged CK2alpha in mouse NIH/3T3 cell lysate at 10 nM in presence of CK2 inhibitor CX-4945 by luminescence assay
[11] = molecular target: T1, Casein kinase II subunit alpha; experiment: Displacement of 5-TAMRA-labeled ARC-1530 from CK2alpha (unknown origin) (1 to 335 residues) after 15 to 60 mins by luminescence assay

SMILES	Kd [1]	fold change (FC) [2]	Activity [3]	Time [4]	fold change (FC) [5]	Activity [6]	Activity [7]	Time [8]	Time [9]	Activity [10]	Activity [11]
Nc1ncc(-c2ccc(C(=O)O)cc2)s1	48 nM										
CN(C)c1ccc2c(-c3ccc(C(=O)NCCCC[C@@H](NC(=O)[C@@H](CC(=O)O)NC(=O)[C@@H](CC(=O)O)NC(=O)[C@@H](CC(=O)O)NC(=O)[C@@H](CC(=O)O)NC(=O)[C@@H](CC(=O)O)NC(=O)[C@@H](CC(=O)O)NC(=O)CCCCCNC(=O)CCC(=O)Nc4ncc(-c5ccc(C(=O)O)cc5)[se]4)C(=O)O)cc3C(=O)[O-])c3ccc(=[N+](C)C)cc-3oc2c1	0.85 nM	10	Active	39 microsec	5300	Active	inactive	58 microsec	39 microsec	inactive	
CN(C)c1ccc2c(-c3ccc(C(=O)NCCCC[C@@H](NC(=O)[C@@H](CC(=O)O)NC(=O)[C@@H](CC(=O)O)NC(=O)[C@@H](CC(=O)O)NC(=O)[C@@H](CC(=O)O)NC(=O)[C@@H](CC(=O)O)NC(=O)[C@@H](CC(=O)O)NC(=O)CCCCCNC(=O)CCC(=O)Nc4ncc(-c5ccc(C(=O)O)cc5)s4)C(=O)O)cc3C(=O)[O-])c3ccc(=[N+](C)C)cc-3oc2c1	0.4 nM			62 microsec	76			165 microsec	62 microsec		
NCCCC[C@@H](NC(=O)[C@@H](CC(=O)O)NC(=O)[C@@H](CC(=O)O)NC(=O)[C@@H](CC(=O)O)NC(=O)[C@@H](CC(=O)O)NC(=O)[C@@H](CC(=O)O)NC(=O)[C@@H](CC(=O)O)NC(=O)CCCCCNC(=O)CCC(=O)Nc1ncc(-c2ccc(C(=O)O)cc2)[se]1)C(=O)O	0.34 nM			55 microsec	46						Active
